Laboratory results taken from BindingDB's records for doi:10.7270/Q2MC8XNQ (Burnham Center For Chemical Genomics, 2012).

Molecular target: T1, Sentrin-specific protease 1 (Homo sapiens, UniProt Q9P0U3)
T1 sequence (Q9P0U3 whole entry): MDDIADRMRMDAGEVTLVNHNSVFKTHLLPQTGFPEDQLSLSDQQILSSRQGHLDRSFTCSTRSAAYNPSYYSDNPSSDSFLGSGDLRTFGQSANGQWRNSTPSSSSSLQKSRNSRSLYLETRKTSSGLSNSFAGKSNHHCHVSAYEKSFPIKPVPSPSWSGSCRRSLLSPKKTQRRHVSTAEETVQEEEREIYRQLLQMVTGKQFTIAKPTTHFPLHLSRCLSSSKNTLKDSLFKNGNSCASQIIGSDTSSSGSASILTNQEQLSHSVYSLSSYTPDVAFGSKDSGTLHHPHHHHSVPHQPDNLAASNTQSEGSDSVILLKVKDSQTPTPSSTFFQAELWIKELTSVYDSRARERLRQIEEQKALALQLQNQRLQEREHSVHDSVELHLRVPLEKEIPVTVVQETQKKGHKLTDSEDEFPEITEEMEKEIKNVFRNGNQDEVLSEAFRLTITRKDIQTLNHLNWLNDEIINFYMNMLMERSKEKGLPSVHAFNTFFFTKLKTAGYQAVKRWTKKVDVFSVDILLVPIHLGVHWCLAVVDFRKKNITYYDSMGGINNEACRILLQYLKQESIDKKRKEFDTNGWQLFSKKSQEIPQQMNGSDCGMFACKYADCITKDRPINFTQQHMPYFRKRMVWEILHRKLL

Row | Compound | IC50
1 | COc1ccc(-n2c(O)c3c(c2O)C(C(=O)c2ccc(Cl)cc2)N2CCCC32)cc1 (stereo unspecified) | 5.56 µM
2 | O=C(Cc1cccc2ccccc12)NC(NC(=S)Nc1ccccc1Cl)C(Cl)(Cl)Cl (stereo unspecified) [2-(1-naphthyl)-N-[2,2,2-trichloro-1-({[(2-chlorophenyl)amino]carbonothioyl}amino)ethyl]acetamide] | 8.36 µM
3 | COc1ccc(C=Nn2c(O)csc2=S)cc1Br [3-[(E)-(3-bromo-4-methoxyphenyl)methylideneamino]-2-sulfanylidene-4-thiazolidinone] | 19.3 µM
4 | N#CC1C(=N)Oc2cc(Nc3ccccc3)ccc2C1c1ccncc1 (stereo unspecified) [2-amino-7-anilino-4-pyridin-4-yl-4H-1-benzopyran-3-carbonitrile] | 41.9 µM
5 | Nc1ccc2c(c1)C(N=O)c1cc([N+](=O)[O-])ccc1-2 (stereo unspecified) [N-(2-azanyl-7-nitro-fluoren-9-ylidene)hydroxylamine] | 18.1 µM
6 | Oc1c2c(c(O)n1-c1ccccn1)C(c1ccccc1)C=CC2c1ccccc1 (stereo unspecified) [4,7-diphenyl-2-pyridin-2-yl-3a,4,7,7a-tetrahydroisoindole-1,3-dione] | 10.8 µM
7 | CCOC1=CC(=Cc2sc(=O)[nH]c2N)C=CC1=O | 10.9 µM
8 | O=C1NC(=S)N/C1=C/c1cccc([N+](=O)[O-])c1O [(5E)-5-[(2-hydroxy-3-nitrophenyl)methylidene]-2-sulfanylideneimidazolidin-4-one] | > 80 µM
9 | O=C(O)c1ccc(N=NCc2cccc3nccnc23)cc1 [4-[(2E)-2-(5-quinoxalinylmethylidene)hydrazinyl]benzoic acid] | 15.1 µM
10 | O=C1CC(=O)c2cccc3cccc1c23 [3-hydroxy-1H-phenalen-1-one] | 13.1 µM
11 | CCN1C(=O)c2cccc3c(NC(=O)c4cccc(-n5c(O)ccc5O)c4)ccc1c23 [3-(2,5-dioxopyrrolidin-1-yl)-N-(1-ethyl-2-oxobenzo[cd]indol-6-yl)benzamide] | 17.9 µM
12 | CC(=O)Oc1ccc(-n2c(O)c3c(c2O)C(C(=O)c2ccc(Cl)cc2)N2CCCC32)cc1 (stereo unspecified) [Acetic acid 4-[4-(4-chloro-benzoyl)-1,3-dioxo-octahydro-pyrrolo[3,4-a]pyrrolizin-2-yl]-phenyl ester] | 7.5 µM
13 | O=C1CC(=Nc2ccc(Cl)cc2)C(=O)N1c1ccc(Cl)cc1 [1-(4-chlorophenyl)-3-[(4-chlorophenyl)amino]pyrrole-2,5-dione] | 21 µM
14 | CC1(C)CC(=O)C2Sc3ccccc3N=C2C1 (stereo unspecified) [2,2-Dimethyl-2,3-dihydro-1H,10H-phenothiazin-4-one] | 29 µM
15 | O=[N+]([O-])c1ccc(C/N=N/c2ccccc2)cc1 | 21.5 µM
16 | CCOC(=O)/C(C#N)=C/C=C1\C=Cc2ccccc2N1CC [(E,4E)-2-cyano-4-(1-ethyl-2-quinolinylidene)-2-butenoic acid ethyl ester] | > 80 µM
17 | COc1ccc(OC)c(CCNC(=O)c2ccc3c(=O)[nH]c4c(C(=O)NC(C)C)sc(=S)n4c3c2)c1 | > 80 µM
18 | COc1nccnc1NS(=O)(=O)c1ccc(NC(=S)NC(=O)c2ccc(F)cc2)cc1 [4-[3-(4-Fluoro-benzoyl)-thioureido]-N-(3-methoxy-pyrazin-2-yl)-benzenesulfonamide] | 11.6 µM

Results, then the compound that gave them:

Row | IC50 | Compound
19 | 13.7 µM | O=C1CCCC2=Nc3cc(Cl)ccc3SC12 (stereo unspecified) [MLS000333002]
20 | 18.1 µM | CC1=C(C#N)C(=O)NC(=O)C1=NNc1ccc(Br)cc1C(=O)O [MLS001213177]
21 | > 80 µM | CCN(CC)CCNc1cccc2sc3ccccc3c(=O)c12 [SMR001821489]
22 | 12.5 µM | O=NC1c2cc([N+](=O)[O-])ccc2-c2cc(Cl)c(NC(=O)C(F)(F)F)cc21 (stereo unspecified) [MLS002707326]
23 | 31 µM | COc1ccc(-n2c(O)c3c(c2O)C(C(=O)c2ccccc2)N2CCCC32)cc1 (stereo unspecified) [MLS000762485]
24 | > 80 µM | Nc1cc([N+](=O)[O-])ccc1Nc1ccccc1 [SMR000271721]
25 | 10.1 µM | CN(C)c1ccc(C=NNC(=O)C(=O)CC2=NC3(CCCC3)Cc3ccccc32)cc1 [MLS000589038]
26 | 9.57 µM | CCOc1cc(C=c2[nH]c3n(c2=O)CCCCC=3)ccc1O [MLS000774439]
